Columns and labels:
[1] = Solubilization of single-walled carbon nanotube; type: physicochemical; conditions: in water; estimated from absorbance at 500 nm
Protocol: Preliminary dispersion was performed by dispersing 1.0 mg of a single-walled carbon nanotube (SWNT) (Carbon Nanotechnology, Inc.) in 0.5 mL of DMSO, and performing ultrasonic irradiation. An amount of 1.0 mL of AQUA β (DAISO Co., Ltd.) in a DMSO solution (2.0 mg/mL) was added and ultrasonic irradiation was further performed for 1 hour. The obtained dispersion was added to 1.5 mL of distilled water. To the dispersion, 35 mL of distilled water was further added and the solution was allowed to stand for one day to renature the AQUA β. It was observed by visual inspection that the solution was uniform at that point. Centrifugation (8,000 rpm, 60 minutes) was performed to recover the complex as a precipitate, the supernatant was removed, and the precipitate was redispersed in distilled water. This procedure was repeated 3 times for removal of uncombined polysaccharides and replacement of the solvent with water. Thus a solution in which the SWNT was dispersed in 5 mL of distilled water was obtained.
From the absorbance at 500 nm (Abs500=0.575), the concentration of the dissolved SWNT is estimated at […]. […] The improvement in the dispersibility seems to be attributed to the fact that AQUA β has a higher proportion of side chains than sizofuran.

[2] = Water solubilization of m-carborane by high speed vibration milling; type: physicochemical
Protocol: m-carborane was mixed with AQUA β (DAISO Co., Ltd.) or sizofuran (SPG) (Mitsui Sugar Co., Ltd.) in the predetermined amounts shown in Table 3 below. The mixture was placed with an agate milling ball in an agate milling jar, and high speed milling was performed with a mixer mill (MM200, Retsch Co., Ltd.) at 25 Hz for 25 minutes. Next, 10,000 parts by weight of water was added to 1 part by weight of the mixture, and the mixture was stirred with a magnetic stirrer at room temperature for two days and further agitated with a vortex mixer for 2 hours. Centrifugation (25° C., 14,000 rpm, 20 minutes) was performed, and the supernatant was filtrated through a 0.45 μm membrane filter. The boron concentration of the filtrate was measured with an ICP atomic emission spectrometer for evaluation of the degree of water solubility.

| Concentration of the dissolved SWNT [1] [µg/mL] | Boron concentration relative to solution prepared using sizofuran [2] [times] | Substance |
| --- | --- | --- |
| 2500 | – | sizofiran |
| – | ≥ 3 | β-1,3-1,6-D-glucan [AQUA β] |

Reference: patent US8907080B2, “Process for imparting water solubility or water dispersibility to hydrophobic cluster compound” (Daiso Co., Ltd., priority 2009, dated 2014)
